Test results: PMC7156458, “Synthetic biology based construction of biological activity-related library of fungal decalin-containing diterpenoid pyrones” (Nature Communications, 2020)

Target: Aβ42 (Homo sapiens, UniProt P05067)
Test: Th-T (thioflavin-T) assay of Aβ42 aggregation
Format: biochemical
Settings: for Th-T fluorescence of Aβ42 with compound, mean of three wells (Fig. 7a source data): concentration 50, unit not given

Aβ42, sequence (P05067 672-713): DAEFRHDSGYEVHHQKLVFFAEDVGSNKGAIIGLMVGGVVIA

C=C1CC[C@@H]2[C@](C)(CC[C@H]3O[C@H](C=C(C)C)C[C@@]23C)[C@@H]1Cc1c(OC)oc(CO)c(C)c1=O [Compound 20]
Th-T fluorescence of Aβ42 with compound, mean of three wells (Fig. 7a source data) (time-course reading M143): 2.125
Th-T fluorescence of Aβ42 with compound, mean of three wells (Fig. 7a source data) (time-course reading M144): 2.117
Th-T fluorescence of Aβ42 with compound, mean of three wells (Fig. 7a source data) (time-course reading M145): 2.122
Th-T fluorescence of Aβ42 (sheet Fig. 7a), mean of three wells (head suffix _10 (concentration 10), reading M63): 3.458
Th-T fluorescence of Aβ42 (sheet Fig. 7a), mean of three wells (head suffix _10 (concentration 10), reading M64): 3.444
Th-T fluorescence of Aβ42 (sheet Fig. 7a), mean of three wells (head suffix _10 (concentration 10), reading M65): 3.449
Th-T fluorescence of Aβ42 (sheet Fig. 7a), mean of three wells (head suffix _10 (concentration 10), reading M66): 3.444
Th-T fluorescence of Aβ42 (sheet Fig. 7a), mean of three wells (head suffix _10 (concentration 10), reading M67): 3.437
Th-T fluorescence of Aβ42 (sheet Fig. 7a), mean of three wells (head suffix _10 (concentration 10), reading M68): 3.439
Th-T fluorescence of Aβ42 (sheet Fig. 7a), mean of three wells (head suffix _10 (concentration 10), reading M69): 3.4039
Th-T fluorescence of Aβ42 (sheet Fig. 7a), mean of three wells (head suffix _10 (concentration 10), reading M70): 3.402
Th-T fluorescence of Aβ42 (sheet Fig. 7a), mean of three wells (head suffix _10 (concentration 10), reading M71): 3.423
Th-T fluorescence of Aβ42 (sheet Fig. 7a), mean of three wells (head suffix _10 (concentration 10), reading M72): 3.425
Th-T fluorescence of Aβ42 (sheet Fig. 7a), mean of three wells (head suffix _10 (concentration 10), reading M73): 3.414
Th-T fluorescence of Aβ42 (sheet Fig. 7a), mean of three wells (head suffix _10 (concentration 10), reading M74): 3.412
Th-T fluorescence of Aβ42 (sheet Fig. 7a), mean of three wells (head suffix _10 (concentration 10), reading M75): 3.393
Th-T fluorescence of Aβ42 (sheet Fig. 7a), mean of three wells (head suffix _10 (concentration 10), reading M76): 3.416
Th-T fluorescence of Aβ42 (sheet Fig. 7a), mean of three wells (head suffix _10 (concentration 10), reading M77): 3.391
Th-T fluorescence of Aβ42 (sheet Fig. 7a), mean of three wells (head suffix _10 (concentration 10), reading M78): 3.393
Th-T fluorescence of Aβ42 (sheet Fig. 7a), mean of three wells (head suffix _10 (concentration 10), reading M79): 3.378
Th-T fluorescence of Aβ42 (sheet Fig. 7a), mean of three wells (head suffix _10 (concentration 10), reading M80): 3.379
Th-T fluorescence of Aβ42 (sheet Fig. 7a), mean of three wells (head suffix _10 (concentration 10), reading M81): 3.38
Th-T fluorescence of Aβ42 (sheet Fig. 7a), mean of three wells (head suffix _10 (concentration 10), reading M82): 3.375
Th-T fluorescence of Aβ42 (sheet Fig. 7a), mean of three wells (head suffix _10 (concentration 10), reading M83): 3.373
Th-T fluorescence of Aβ42 (sheet Fig. 7a), mean of three wells (head suffix _10 (concentration 10), reading M84): 3.355
Th-T fluorescence of Aβ42 (sheet Fig. 7a), mean of three wells (head suffix _20 (concentration 20), reading M63): 3.439
Th-T fluorescence of Aβ42 (sheet Fig. 7a), mean of three wells (head suffix _20 (concentration 20), reading M64): 3.419
Th-T fluorescence of Aβ42 (sheet Fig. 7a), mean of three wells (head suffix _20 (concentration 20), reading M65): 3.416
Th-T fluorescence of Aβ42 (sheet Fig. 7a), mean of three wells (head suffix _20 (concentration 20), reading M66): 3.432
Th-T fluorescence of Aβ42 (sheet Fig. 7a), mean of three wells (head suffix _20 (concentration 20), reading M67): 3.438
Th-T fluorescence of Aβ42 (sheet Fig. 7a), mean of three wells (head suffix _20 (concentration 20), reading M68): 3.449
Th-T fluorescence of Aβ42 (sheet Fig. 7a), mean of three wells (head suffix _20 (concentration 20), reading M69): 3.405
Th-T fluorescence of Aβ42 (sheet Fig. 7a), mean of three wells (head suffix _20 (concentration 20), reading M70): 3.395
Th-T fluorescence of Aβ42 (sheet Fig. 7a), mean of three wells (head suffix _20 (concentration 20), reading M71): 3.403
Th-T fluorescence of Aβ42 (sheet Fig. 7a), mean of three wells (head suffix _20 (concentration 20), reading M72): 3.419
Th-T fluorescence of Aβ42 (sheet Fig. 7a), mean of three wells (head suffix _20 (concentration 20), reading M73): 3.421
Th-T fluorescence of Aβ42 (sheet Fig. 7a), mean of three wells (head suffix _20 (concentration 20), reading M74): 3.387
Th-T fluorescence of Aβ42 (sheet Fig. 7a), mean of three wells (head suffix _20 (concentration 20), reading M75): 3.3567
Th-T fluorescence of Aβ42 (sheet Fig. 7a), mean of three wells (head suffix _20 (concentration 20), reading M76): 3.391
Th-T fluorescence of Aβ42 (sheet Fig. 7a), mean of three wells (head suffix _20 (concentration 20), reading M77): 3.3972
Th-T fluorescence of Aβ42 (sheet Fig. 7a), mean of three wells (head suffix _20 (concentration 20), reading M78): 3.402
Th-T fluorescence of Aβ42 (sheet Fig. 7a), mean of three wells (head suffix _20 (concentration 20), reading M79): 3.362
Th-T fluorescence of Aβ42 (sheet Fig. 7a), mean of three wells (head suffix _20 (concentration 20), reading M80): 3.347
Th-T fluorescence of Aβ42 (sheet Fig. 7a), mean of three wells (head suffix _20 (concentration 20), reading M81): 3.353
Th-T fluorescence of Aβ42 (sheet Fig. 7a), mean of three wells (head suffix _20 (concentration 20), reading M82): 3.387
Th-T fluorescence of Aβ42 (sheet Fig. 7a), mean of three wells (head suffix _20 (concentration 20), reading M83): 3.377
Th-T fluorescence of Aβ42 (sheet Fig. 7a), mean of three wells (head suffix _20 (concentration 20), reading M84): 3.32
Th-T fluorescence of Aβ42 (sheet Fig. 7a), mean of three wells (head suffix _50 (concentration 50), reading M63): 2.073
Th-T fluorescence of Aβ42 (sheet Fig. 7a), mean of three wells (head suffix _50 (concentration 50), reading M64): 2.076
Th-T fluorescence of Aβ42 (sheet Fig. 7a), mean of three wells (head suffix _50 (concentration 50), reading M65): 2.0862
Th-T fluorescence of Aβ42 (sheet Fig. 7a), mean of three wells (head suffix _50 (concentration 50), reading M66): 2.098
Th-T fluorescence of Aβ42 (sheet Fig. 7a), mean of three wells (head suffix _50 (concentration 50), reading M67): 2.131
Th-T fluorescence of Aβ42 (sheet Fig. 7a), mean of three wells (head suffix _50 (concentration 50), reading M68): 2.106
Th-T fluorescence of Aβ42 (sheet Fig. 7a), mean of three wells (head suffix _50 (concentration 50), reading M69): 2.087
Th-T fluorescence of Aβ42 (sheet Fig. 7a), mean of three wells (head suffix _50 (concentration 50), reading M70): 2.078
Th-T fluorescence of Aβ42 (sheet Fig. 7a), mean of three wells (head suffix _50 (concentration 50), reading M71): 2.105
Th-T fluorescence of Aβ42 (sheet Fig. 7a), mean of three wells (head suffix _50 (concentration 50), reading M72): 2.132
